Values quoted from earlier work in patent publication US20140329781A1, “METHODS FOR TREATING CARDIOVASCULAR DISORDER” (WOCKHARDT LIMITED, priority 2011, published 2014).

Assays:
albumin = albumin (Homo sapiens, UniProt P02768)
[1] = water

Sequence of albumin (P02768 25-609, species assumed): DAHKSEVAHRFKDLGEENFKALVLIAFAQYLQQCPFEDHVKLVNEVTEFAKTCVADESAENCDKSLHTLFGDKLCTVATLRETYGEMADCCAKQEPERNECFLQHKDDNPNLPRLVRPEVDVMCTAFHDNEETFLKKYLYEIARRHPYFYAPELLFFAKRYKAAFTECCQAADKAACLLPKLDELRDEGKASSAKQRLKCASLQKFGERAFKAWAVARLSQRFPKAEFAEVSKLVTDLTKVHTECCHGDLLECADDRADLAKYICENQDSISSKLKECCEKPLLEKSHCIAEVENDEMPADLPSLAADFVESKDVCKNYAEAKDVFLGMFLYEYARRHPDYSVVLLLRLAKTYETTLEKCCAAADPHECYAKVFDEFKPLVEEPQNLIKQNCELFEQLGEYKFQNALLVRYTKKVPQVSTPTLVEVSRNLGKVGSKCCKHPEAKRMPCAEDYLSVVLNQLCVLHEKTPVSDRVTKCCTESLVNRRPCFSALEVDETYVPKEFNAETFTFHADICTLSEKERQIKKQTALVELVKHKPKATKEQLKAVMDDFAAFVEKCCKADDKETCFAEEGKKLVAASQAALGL

protein bound to albumin (albumin) | bioavailability (in words) (extensive first pass metabolism in the liver) | solubility (in words) [1] | bioavailability (incomplete due to extensive first pass metabolism) | Structure (SMILES)
94-98% | low | poorly water-soluble | – | COC(=O)[C@H](c1ccccc1Cl)N1CCc2sccc2C1 [Clopidogrel]
– | – | highly soluble | about 50% | COCCc1ccc(OCC(O)CNC(C)C)cc1 (centres unmarked) [Metoprolol]
